The structures appear in SMILES notation.

Test [1] relates to CLN3^Δex7/8 human neural stem cells. The test is described as follows: Tandem LC3 autophagic flux in human neural stem cells. The class given is cell-based. The source says: After lysosomal function defects were detected in CLN3^Δex7/8 neural stem cells and neurons, autophagic flux in the cells was further examined. Equal amounts of lentivirus packaged with tandem LC3 plasmid were used to infect wild-type and CLN3^Δex7/8 cells to label intracellular autophagosomes.
Autophagosomes in neural stem cells were labeled using tandem LC3, and the number of autophagosomes with green fluorescence and those with red fluorescence only were observed by high-intensity laser confocal microscope.

In test [2] the test system is CLN3^Δex7/8 neural stem cells. The test is described as follows: Immunofluorescence staining of neural stem cell lineage markers. It is filed as cell-based, human. The note with it: 48 hours of treatment. How it is done:
Fixation: the cell medium was aspirated and the cells were washed once with dPBS, then 4% paraformaldehyde solution was added to fix the cells, which were then incubated at room temperature for 20 min and washed 3 times with dPBS for 5 min each; blocking and permeabilization: blocking solution (5% BSA and 0.3% Trinton-X100 dissolved in dPBS) was added, incubation at room temperature for 1 hour followed by washing with dPBS 3 times for 5 minutes each; primary antibody incubation: the antibody was diluted with dPBS containing 5% BSA according to the specification, incubated overnight at 4° C. or 2 hours at room temperature, and washed 3 times with dPBS for 5 minutes each; secondary antibody incubation: the secondary antibody of the corresponding species was diluted with dPBS containing 5% BSA at a ratio of 1:1000, incubated at room temperature for 1 hour, and then washed with dPBS 3 times for 5 minutes each; nuclear staining: DAPI was diluted to 100 ng/ml with dPBS, incubated at room temperature for 5 minutes, and washed 3 times with dPBS for 5 minutes each; imaging: imaging was performed using Olympus IX83 Inverted Motorized Microscope or Opera Phenix™ High Content Screening System.
After 48 hours of treatment of CLN3^Δex7/8 neural stem cells with Compound G, immunofluorescence staining was performed for the neural stem cell lineage markers SOX1, PAX6 and NESTIN.

The subject of the next test is cathepsin D. The test is described as follows: Intracellular cathepsin D activity. The class given is cell-based, human. The following applies: CLN3^Δex7/8 neurons. How it is done:
The activity of intracellular protease cathepsin D was measured using Abcam's Cathepsin D Activity Assay kit. Each sample was prepared in more than 3 replicates. […]

The test system of test [3] is CLN3^Δex7/8 neural stem cells. The test is described as follows: Differentiation of CLN3^Δex7/8 neural stem cells into neurons. It is filed as cell-based, human. The note with it: after 17 days of differentiation. How it is done:
When the density of human induced neural stem cells reached 85-95%, passage was performed at 1:20-1:50 according to the above method. The medium on the day of passage (recorded as Day 1 of differentiation) was human neural stem cell maintenance medium with 10 μM Y27632, which was removed after 24 h, and culture continued in human neural stem cell maintenance medium for 48 hours. On Day 4 of differentiation, the medium was changed to human neuronal differentiation medium (human neuronal medium: DMEM/F12 medium+10 ng/ml hBDNF+10 ng/ml hGDNF+300 ng/mL cAMP+0.2 mM vitamin C+1×N2+1×B27+1% Penicillin/Streptomycin), with medium change halfly every other day. Human neurons highly expressing MAP2 and TUJ1 proteins were obtained on Day 17 of differentiation. Thereafter, the human neurons could be continuously cultured in the human neuron differentiation medium, with medium change halfly every other day.
Starting from the same number of human neural stem cells induced to differentiate into human neurons, CLN3^Δex7/8 neural stem cells eventually generated a lower number of neurons than wild-type cells. During the process of neurons differentiation, the seven small molecule compounds obtained above were each added to the culture medium and observed for their effects on the differentiation process of CLN3^Δex7/8 neural stem cells into neurons.

For another test, the system named is Cln3 KO mice. The test is described as follows: Immunohistochemical staining of SCMAS in Cln3 KO mouse brain. The class given is in vivo. The following applies: Cln3 KO mice treated from 21 days to 2 months of age.
The subject of another test is mouse neural stem cells. The test is described as follows: qRT-PCR of autophagy and lysosome-related genes in mouse neural stem cells. The class given is cell-based. The note with it: 6 hours. How it is done: The cells in the cell-culture dish were collected, extracted using AxyPrep Total RNA Mini Prep Kit or Qiagen AxyPrep Total RNA Mini Prep Kit, and the extracted RNA concentration is measured using Nanodrop; the extracted mRNA was reverse transcribed into cDNA by Transgen's EasyScript® One-Step gDNA Removal and cDNA Synthesis SuperMix and the primers used for reverse transcription were Oligo dT primers; the completion of reverse transcription followed by qRT-PCR reaction through PerfectStart™ Green qPCR SuperMix to detect the expression of the target gene; the qRT-PCR reaction was performed on the Bio-Rad CFX96 Real-Time PCR system; see Table 2 and Table 3 for the 20 μL qRT-PCR reaction system and reaction procedures; data analysis was performed in Prism 7 software using the 2^−ΔΔCt process with GAPDH as internal reference for relative quantification of the expression of the target gene.
After treating primary (a) neural stem cells and (b) neurons of Cln3 KO) mice for 6 hours, the mRNA was extracted from the cells, reverse-transcribed into cDNA, and transcription levels of autophagy- and lysosome-related genes were detected using qRT-PCR (n=3).
It was speculated from this that the known target FXR of Compound G was expressed at low or no levels in neural lineage cells. […]
Background: Real-time PCR tracks product formation cycle by cycle.

Turning to `C/C=C1\C(=O)C[C@H]2[C@@H]3CCC4=CC(=O)CC[C@]4(C)[C@H]3CC[C@]12C` [Compound G, (Z)-guggulsterone], the “number of red fluorescence single-positive autophagosomes” value in test [1] is listed as “increased the number of red fluorescence single-positive autophagosomes”. For the same molecule, the “neural stem cell lineage markers SOX1, PAX6 and NESTIN (cell fate)” value in test [2] is “maintained the characteristics of SOX1, PAX6 and NESTIN positive”. For the same molecule, in the test on cathepsin D, the “activity of cathepsins D (fluorescence intensity)” value is listed as “significantly increased”. Further, the “MAP2 and TUJ1-positive neurons generated from the same number of cells” value in test [3] is “generate more MAP2 and TUJ1-positive neurons”. Besides, the “substances (SCMAS) abnormally stored in the brains” value in the test on Cln3 KO mice is listed as “alleviate the amount of the substances abnormally stored in the brains of Cln3 KO mice to a certain extent”. Also, the “expression level of the autophagy and lysosome-related genes” value in the test with mouse neural stem cells is reported as “no significant change”.
